Results taken from PMC2924314, “Peptides derived from the HIV-1 integrase promote HIV-1 infection and multi-integration of viral cDNA in LEDGF/p75-knockdown cells” (Virology Journal, 2010).
Where no end group is shown, it is not given here.

Columns and labels:
[1] = target: T1, LEDGF/p75 (Homo sapiens, UniProt O75475); assay: ELISA binding of peptides to LEDGF/p75; details: apparent Kd according to ELISA using LEDGF and BSA alone as control; peptide-coated plates, room temperature, OD 490 nm, duplicate
T1 construct: histidine tag; made in house
T1 sequence (O75475 whole entry): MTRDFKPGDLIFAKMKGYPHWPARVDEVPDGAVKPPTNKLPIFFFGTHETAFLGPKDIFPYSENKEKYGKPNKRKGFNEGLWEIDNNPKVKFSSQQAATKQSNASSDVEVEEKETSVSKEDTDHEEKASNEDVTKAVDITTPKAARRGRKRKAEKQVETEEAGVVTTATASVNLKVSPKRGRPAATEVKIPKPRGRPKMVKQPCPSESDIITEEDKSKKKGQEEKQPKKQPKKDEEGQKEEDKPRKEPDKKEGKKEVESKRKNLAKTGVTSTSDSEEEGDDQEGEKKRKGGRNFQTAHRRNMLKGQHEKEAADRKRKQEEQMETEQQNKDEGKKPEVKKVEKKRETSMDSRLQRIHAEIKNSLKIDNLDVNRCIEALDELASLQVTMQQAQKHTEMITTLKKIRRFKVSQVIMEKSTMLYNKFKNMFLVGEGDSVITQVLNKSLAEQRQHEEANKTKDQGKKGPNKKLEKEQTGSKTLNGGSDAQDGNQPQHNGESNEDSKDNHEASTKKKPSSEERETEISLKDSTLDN
Protocol: Expression and purification of the histidine-tagged IN and LEDGF/p75 expression vectors, were a generous gift from Prof. Engelman, Dana-Farber Cancer Institute and Division of AIDS, Harvard Medical School, Boston, MA, USA), were performed essentially as described previously.
Protein-peptide, protein-protein and protein-DNA binding was estimated using an ELISA-based binding assay exactly as described previously. Briefly, Maxisorp plates (Nunc) were incubated at room temperature for 2 h with […] of 10 μg/ml synthetic peptide/recombinant proteins in carbonate buffer. After incubation, the solution was removed, the plates were washed three times with PBS, and 200 μl of 10% BSA (Sigma) in PBS (w/v) was added and the plates were further incubated for 2 h at room temperature. After rewashing with PBS, the tested BSA-biotinilated (Bb) peptide or protein (alone or biotinilated) was added for a further 1-h incubation at room temperature. Following three washes with PBS, the concentration of bound molecules was estimated following the addition of streptavidin-horseradish peroxidase (HRP) conjugate (Sigma), as described previously. The enzymatic activity of HRP was estimated by monitoring the product's optical density (OD) at 490 nm using an ELISA plate reader (Tecan Sunrise, Männedorf, Switzerland). Each measurement was performed in duplicate. […]

[2] = ref [25]; cited from earlier work
Source text: Following integration of the viral cDNA, several viral proteins are expressed, among them Rev. After its nuclear import the Rev protein is involved in nuclear export of unspliced and partially spliced viral RNA molecules. Thus, similar to IN, the presence the Rev protein is essential for completion of the HIV-1 life cycle. In addition to its expression from integrated viral DNA, Rev can be expressed from unintegrated DNA molecules and thus appear at an early stage in virus-infected cells. Recently, we have shown that early expressed Rev can interact with IN in ...

WTAVQMAVFIHNFKRK [INS]
Kd [1]: 2200 ± 700 nM | cell permeability (result in words) [2]: cell-permeable
